Common to all, as to assay: NCI tumour cell line growth inhibition, 48 h
Assay [1] concerns SF-295 CNS.
In assay [2] the test system is MCF7 breast.
Assay [3] concerns UACC-62 melanoma.
The test system of assay [4] is EKVX NSCLC.
The test system of assay [5] is HS 578T breast.
The test system of assay [6] is HT29 colon.
In assay [7] the test system is HL-60(TB) leukemia.
Assay [8] deals with SNB-75 CNS.
Assay [9] deals with 786-0 renal.
The test system of assay [10] is SNB-19 CNS.
Assay [11] deals with SR leukemia.
Assay [12] has as its system SK-MEL-2 melanoma.
Assay [13] has as its system NCI/ADR-RES ovarian.
The test system of assay [14] is A498 renal.
Assay [15] relates to RPMI-8226 leukemia.
Assay [16] concerns DU-145 prostate.
In assay [17] the test system is TK-10 renal.
Assay [18] relates to NCI-H522 lung.
Assay [19] concerns OVCAR-8 ovarian.
The test system of assay [20] is KM12 colon.

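Five compound concentrations were applied to cells in 96-well plates for 48 hours; endpoints were derived by simple linear interpolation of the resulting dose-response curve. At the TGI there is no net growth.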

As for `COc1cc(/C=C/C(=N\NC(N)=S)c2sc(NNC(C)=O)nc2C)ccc1O`, the TGI in assay [1], in assay [2], in assay [3], in [4], in assay [5] and in assay [6] was over 100 µM throughout. Besides, the TGI in [7], in [8], in assay [9], in assay [10], in [11] and in [12] was over 100 µM in each case. Besides, the TGI in assay [13], in assay [14], in assay [15], in [16], in [17] and in assay [18] was over 100 µM in each case. Further, the TGI in [19] and in assay [20] was over 100 µM throughout.

In the case of `CCC(Nc1ncnc2nc[nH]c12)C(=O)O` (centres undefined), the TGI in assay [1], in assay [2], in assay [3], in assay [4], in [5] and in assay [6] was over 100 µM throughout. Moreover, the TGI in assay [7], in [8], in assay [9], in [10], in assay [11] and in assay [12] was over 100 µM throughout. The TGI in assay [13], in assay [14], in assay [15], in assay [16], in [17] and in [18] was over 100 µM each time. Besides, the TGI in assay [19] and in assay [20] was over 100 µM each time.

`Cc1nc2ccc(NC3OCC(O)C(O)C3O)cc2c(=O)n1-c1ccccc1` (centres undefined): the TGI in assay [1], in assay [2], in assay [3], in [4], in assay [5] and in assay [6] was over 100 µM in each case. The TGI in [7], in assay [8], in assay [9], in assay [10], in assay [11] and in assay [12] was over 100 µM in each case. For the same molecule, the TGI in assay [13], in assay [14], in assay [15], in assay [16], in assay [17] and in assay [18] was over 100 µM each time. In addition, the TGI in assay [19] and in assay [20] was over 100 µM each time.

Take `CSc1ccc2c(c1)c(CCN)c(C)n2Cc1ccccc1Cl`: the TGI in assay [1] came out at 3.26 µM; in assay [2], 3.11 µM; in [3] it was 3.05 µM; in assay [4], 3.12 µM; in [5], 3.67 µM; in assay [6], 3.09 µM. Further, the TGI in [7] is 3.2 µM; in [8], 3.04 µM; in [9] it was 3.42 µM; in [10] it was 3.32 µM; in assay [11], over 100 µM; in assay [12], 3.26 µM. In addition, the TGI in assay [13] worked out at 4.77 µM; in [14], 3.1 µM; in assay [15] it was 3.26 µM; in assay [16], 3.04 µM; in assay [17], 3.15 µM; in [18], 3 µM. For the same molecule, the TGI in assay [20] stood at 3.32 µM.

Consider `CN(C)CC1CCC/C(=C\c2ccc(OC(=O)/C=C/c3ccc(Cl)cc3)cc2)C1=O` (centres undefined), for which the TGI in [1] worked out at 19.7 µM; in assay [2] it was 4.95 µM; in [3], 19.1 µM; in [4] it was 15.2 µM; in assay [5] it was 24.6 µM; in [6], 7.12 µM. Moreover, the TGI amounted to 3.22 µM in assay [7]; 24.9 µM in [8]; 3.05 µM in assay [9]; 13.9 µM in assay [10]; 2.87 µM in [11]; 25.1 µM in assay [12]. In addition, the TGI in assay [13] was found to be 23 µM; in assay [14], 16.3 µM; in assay [15] it was 1.8 µM; in assay [16], 25.5 µM; in assay [17], 4.73 µM; in assay [18], 1.91 µM. Further, the results for the TGI in [19] and in assay [20] were 19.3 µM and 4.38 µM, respectively.

On to `N#CC1=C(N)N(/N=C/c2ccco2)C(c2ccco2)C1(C#N)C#N` (centres undefined), for which the TGI in [1] was 79 µM; in [2] it was 43.2 µM; in assay [3], 42.4 µM; in assay [4], 47.3 µM; in assay [5] it was 97.2 µM; in [6] it was 32.2 µM. For the same molecule, the TGI came out at 7.69 µM in [7]; 36.6 µM in assay [8]; 33.1 µM in [9]; 39.2 µM in assay [10]; 39.3 µM in assay [11]; 47.4 µM in assay [12]. Also, the TGI in assay [13] is 61.2 µM; in [14], 29.9 µM; in assay [15], 44 µM; in assay [16], 32.1 µM; in assay [17], 32.4 µM; in assay [18] it was 31.1 µM. Further, the TGI in assay [19] is 41.6 µM; in [20] it was 28.7 µM.

`CSc1ncc2c(n1)-c1ccccc1OC2`: the TGI in [1], in assay [2], in assay [3], in assay [4], in assay [5] and in assay [6] was over 100 µM throughout. Besides, the TGI in assay [7], in [8], in assay [9], in [10], in assay [11] and in assay [12] was over 100 µM throughout. Also, the TGI was over 100 µM in assay [13]; 73.6 µM in assay [14]; over 100 µM in assay [15]; over 100 µM in [16]; over 100 µM in assay [17]; over 100 µM in assay [18]. Moreover, the TGI in assay [19] and in [20] was over 100 µM each time.

Regarding `CCCN(CCC)C(=O)c1c(N2CCN(C)CC2)c2cccnc2n2c(C)cnc12`, the TGI in assay [1], in [2], in [3], in [4], in [5] and in [6] was over 100 µM each time. In addition, the TGI was over 100 µM in assay [7]; over 100 µM in assay [8]; over 100 µM in assay [9]; 68.1 µM in assay [10]; over 100 µM in assay [11]; over 100 µM in assay [12]. In addition, the TGI in assay [13], in assay [14], in assay [15], in assay [16], in assay [17] and in assay [18] was over 100 µM throughout. The TGI in assay [19] and in assay [20] was over 100 µM in each case.

For the molecule `COc1ccc2c(c1)/c(=C/C#N)c1c3ccccc3[n+](C)n21`, the TGI in assay [1] is 42.1 µM; in [2] it was over 55.9 µM; in assay [3] it was 42.3 µM; in [4], 16.5 µM; in assay [5], 50.4 µM; in assay [6], 10.6 µM. Also, the TGI was over 48.3 µM in [7]; 9.21 µM in [8]; over 70.1 µM in assay [9]; 51.5 µM in assay [10]; over 100 µM in assay [11]; 36.1 µM in assay [12]. Also, the TGI was over 100 µM in assay [13]; 13.9 µM in assay [14]; 8.03 µM in [15]; 8.59 µM in assay [16]; 20.7 µM in assay [17]; 20.4 µM in assay [18]. Also, the results for the TGI in [19] and in [20] were over 100 µM and 17.9 µM, respectively.
